Experiments:
human SGLT1 = target: T1, human SGLT1 (Homo sapiens, UniProt P13866); assay: Sodium-dependent 14C-AMG uptake assay in CHO-K1 cells expressing human SGLT1; assay type: cell-based; conditions: n=5
T1 construct: expressed in transfected cells
T1 sequence (P13866 1-664): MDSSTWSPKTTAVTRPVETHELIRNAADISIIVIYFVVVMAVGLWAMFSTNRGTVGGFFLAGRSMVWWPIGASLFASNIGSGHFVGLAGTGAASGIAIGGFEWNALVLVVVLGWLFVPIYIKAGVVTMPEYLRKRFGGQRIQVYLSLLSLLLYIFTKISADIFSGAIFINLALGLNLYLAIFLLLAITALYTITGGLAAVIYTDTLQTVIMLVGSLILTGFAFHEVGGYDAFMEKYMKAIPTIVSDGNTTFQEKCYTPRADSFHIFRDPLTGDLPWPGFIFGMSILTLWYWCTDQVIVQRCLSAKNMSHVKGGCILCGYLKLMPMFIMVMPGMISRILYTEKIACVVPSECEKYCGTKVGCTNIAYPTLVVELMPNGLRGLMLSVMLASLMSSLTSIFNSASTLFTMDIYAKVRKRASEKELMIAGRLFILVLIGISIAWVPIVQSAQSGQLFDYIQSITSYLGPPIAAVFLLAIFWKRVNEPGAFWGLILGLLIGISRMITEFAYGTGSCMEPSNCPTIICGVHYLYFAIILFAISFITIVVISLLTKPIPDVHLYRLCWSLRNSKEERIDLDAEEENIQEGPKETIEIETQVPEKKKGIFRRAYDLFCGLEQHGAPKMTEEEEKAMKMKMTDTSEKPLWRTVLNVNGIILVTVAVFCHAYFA
Text: (§1) The cDNA encoding human SGLT1 (slc5al, NM_000343) and mouse SGLT1 (slc5al, NM_019810.4) are purchased from Openbiosystems, Invitrogen and Openbiosystems, respectively. The cDNA is cloned into pcDNA3.1+ for mammalian expression and is stably transfected into Chinese hamster ovary (CHO)-K1 cells using standard mammalian transfection procedures. An SGLT-expressing sub-clone of each over-expressing cell line is selected based on resistance to neomycin (Geneticin, Invitrogen) and activity in the ^14C-α-methyl-D-glucopyranoside (^14C-AMG) uptake assay (see below). Stable SGLT-expressing cells are maintained using standard cell culture techniques.
(§2) The SGLT activity is measured as sodium-dependent ^14C-AMG uptake in the above cell lines described as follows. One hundred μL of culture medium containing 30,000 cells are seeded to each well of a 96-well BioCoat poly-D-lysine plate (Becton Dickson) and cultured at 37° C. overnight. The culture medium is aspirated and cells are washed twice with 200 μL of Reaction Buffer (140 mM NaCl, 2 mM KCl, 1 mM CaCl2, MgCl2, and 14 mM N-2-hydroethylpiperrazine-N′-2-ethanesulfonic acid (Hepes), pH 7.5). The excess buffer is tapped out onto paper towels. Thirty-five μL of Reaction Buffer are added to each well. […] After mixing, the scintillation signal in the plate is counted in a MicroBeta (PerkinElmer). […]

mouse SGLT1 = target: T2, mouse SGLT1 (Mus musculus, UniProt Q8C3K6); assay: Sodium-dependent 14C-AMG uptake assay in CHO-K1 cells expressing mouse SGLT1; assay type: cell-based; conditions: n=5
T2 construct: expressed in transfected cells
T2 sequence (Q8C3K6 1-665): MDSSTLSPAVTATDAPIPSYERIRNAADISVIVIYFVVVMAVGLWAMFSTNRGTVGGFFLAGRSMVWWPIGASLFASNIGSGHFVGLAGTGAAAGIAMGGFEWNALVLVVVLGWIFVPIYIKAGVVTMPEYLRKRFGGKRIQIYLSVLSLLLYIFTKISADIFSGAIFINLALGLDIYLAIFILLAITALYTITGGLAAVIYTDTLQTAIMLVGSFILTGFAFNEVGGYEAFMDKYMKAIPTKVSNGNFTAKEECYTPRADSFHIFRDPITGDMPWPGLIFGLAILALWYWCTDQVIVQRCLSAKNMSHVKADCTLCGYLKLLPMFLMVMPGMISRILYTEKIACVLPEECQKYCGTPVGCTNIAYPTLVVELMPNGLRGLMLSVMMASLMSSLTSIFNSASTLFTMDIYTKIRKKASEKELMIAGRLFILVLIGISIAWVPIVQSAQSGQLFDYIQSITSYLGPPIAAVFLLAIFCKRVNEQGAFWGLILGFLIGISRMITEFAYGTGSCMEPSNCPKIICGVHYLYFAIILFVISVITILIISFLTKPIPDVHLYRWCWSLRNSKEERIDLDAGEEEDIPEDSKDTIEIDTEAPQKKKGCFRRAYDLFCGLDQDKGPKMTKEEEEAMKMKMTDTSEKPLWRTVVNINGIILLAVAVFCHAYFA
Text: as §1, §2

C57Bl/6 mice = assay: Glucose lowering effects in oral glucose tolerance test (OGTT); assay type: in vivo, mouse; design: Baseline Adjusted AUC (glucose): unit not given here; conditions: for Glucose 20 Minute / Glucose 40 Minute / Glucose 60 Minute / Baseline Adjusted AUC (glucose) / Glucose Cmax / Glucose Tmax / Glucose 0 Minute: 10 mg/kg oral, Mean ± SEM; for Glucose 20 Minute: 20 min after 3 g/kg dextrose; for Glucose 40 Minute: 40 min after 3 g/kg dextrose; for Glucose 60 Minute: 60 min after 3 g/kg dextrose; for Glucose 0 Minute: baseline before 3 g/kg dextrose
Experimental: The test compound is formulated by adding a vehicle of 1% hydroxyethylcellulose, 0.25% Tween® 80 w/antifoam 0.05% to preweighed test compound to make a 1 mg/ml solution. The mixture is probe sonicated for approximately 1 minute. A stir bar is added, and the resulting suspension is stirred continuously throughout dosing.
The first set of mice receiving an OGTT 18 hours after compound administration, the second 8 hours after compound administration. The first set of animals are weighed and body weights used to determine study groups (n=5), within a working range of 26-30 g. After grouping, the mice are orally gavaged with 10 ml/kg of test compound preparation or vehicle, thirty seconds apart. […] Both sets, 18 and 8 hour OGTT, of mice are then fasted overnight by removing access to food, late afternoon before test day. The following morning, the 8 hour OGTT mice are weighed and bled (via tail snip) for glucose. Study groups (n=5) are determine using fasted glucose values, within a working range of 80-100 mg/dl. After grouping the mice are orally gavaged with compound, thirty seconds apart. These mice then receive an OGTT 8 hours after compound administration.
At eight and eighteen hours after each respective compound treatment is started, a baseline blood sample is taken for measuring glucose (from the first animal). The animal is then immediately given an oral dose of 50% dextrose (Hospira®) at 3 g/kg. Blood samples are taken for glucose, exactly thirty seconds apart, by tail vein so that blood is collected in each animal at 20, 40, and 60 minutes after the dextrose dose.

SMILES: Cc1cccc2c1c(Cc1ccc(OCCCN3CCCC4(CCN(C(=O)CNC(=O)NCC(C)C)CC4)C3)cc1)cn2[C@@H]1O[C@H](CO)[C@@H](O)[C@H](O)[C@H]1O [Example 1, 1-isobutyl-3-[2-[4-[3-[4-[[4-methyl-1-[(2R,3R,4S,5S,6R)-3,4,5-trihydroxy-6-(hydroxymethyl)tetrahydropyran-2-yl]indol-3-yl]methyl]phenoxy]propyl]-4,9-diazaspiro[5.5]undecan-9-yl]-2-oxo-ethyl]urea]
- IC50 (human SGLT1): 35.2 ± 14.1 nM
- IC50 (mouse SGLT1): 14.9 ± 10.4 nM
- Glucose 20 Minute (C57Bl/6 mice; OGTT 8 hrs post dose): 114 ± 3.36 mg/dL
- Glucose 40 Minute (C57Bl/6 mice; OGTT 8 hrs post dose): 131 ± 6.81 mg/dL
- Glucose 60 Minute (C57Bl/6 mice; OGTT 8 hrs post dose): 125.8 ± 7.52 mg/dL
- Baseline Adjusted AUC (glucose) (C57Bl/6 mice; OGTT 8 hrs post dose): 2370 ± 315
- Glucose Cmax (C57Bl/6 mice; OGTT 8 hrs post dose): 132.9 ± 6.68 mg/dL
- Glucose Tmax (C57Bl/6 mice; OGTT 8 hrs post dose): 44 ± 7.48 min
- Glucose 0 Minute (C57Bl/6 mice; OGTT 8 hrs post dose): 75.8 ± 2.48 mg/dL
- Glucose 20 Minute (C57Bl/6 mice; OGTT 18 hrs post dose): 121.4 ± 5.16 mg/dL
- Glucose 40 Minute (C57Bl/6 mice; OGTT 18 hrs post dose): 127 ± 9.78 mg/dL
- Glucose 60 Minute (C57Bl/6 mice; OGTT 18 hrs post dose): 125 ± 7.27 mg/dL
- Baseline Adjusted AUC (glucose) (C57Bl/6 mice; OGTT 18 hrs post dose): 2258 ± 252
- Glucose Cmax (C57Bl/6 mice; OGTT 18 hrs post dose): 134.2 ± 6.72 mg/dL
- Glucose Tmax (C57Bl/6 mice; OGTT 18 hrs post dose): 44 ± 7.48 min
- Glucose 0 Minute (C57Bl/6 mice; OGTT 18 hrs post dose): 79.2 ± 4.51 mg/dL
- glucose excursion after oral bolus of 50% dextrose (C57Bl/6 mice; normal glycemic C57Bl/6 mouse, eight or eighteen hours after administration): decrease

From US9145437B2, “Urea compounds” (Eli Lilly and Company, priority 2013, dated 2015)
